Columns and labels:
Type in all cases: in vivo
[1] = system: Glyphosate susceptible marestail (ERICA); test: Greenhouse test, post-emergence control of glyphosate susceptible marestail; conditions: use rate 420 g/ha
Excerpt: (§1) The phenyluracils I and/or the other active ingredients according to the present invention were formulated in a suitable way, either separately or in mixture, e.g. as emulsifiable concentrates (EC), soluble concentrates (SL), suspo-emulsions (SE), suspension concentrates (SC) or water-dispersible granules (WG). The formulation(s) were suspended or emulsified in water as a distribution medium immediately prior to spraying. Afterwards, the aqueous mixture was evenly sprayed on the test plots or plant pots by means of finely distributing nozzles.
(§2) For the greenhouse tests, plants were grown in pots to a height between 3 and 6 cm, and then treated (post-emergence). During the test period of 29 days, the plants were tended.
(§3) The evaluation of the damage caused by the phenyluracils I and/or the other active ingredients according to the present invention was carried out using a scale from 0 to 100%, compared to the untreated control plots. Here, 0 means no damage and 100 means complete destruction of the plants of a respective weed or crop species.
(§4) In this example, glyphosate (isopropylammonium salt) was formulated as a 353 g/l SL and Phenyluracil I.7 as a 120 g/l EC. Prior to application, the formulated active ingredients were tank-mixed with an aqueous 187 l/ha spray solution which contained, in addition, 15 g/l of ammonium sulphate and 2.5 g/l of non-ionic surfactant.

[2] = system: Glyphosate resistant marestail (ERICA); test: Greenhouse test, post-emergence control of glyphosate resistant marestail; conditions: use rate 420 g/ha
Excerpt: as §1, §2, §3, §4

[3] = system: Glyphosate resistant cotton; test: Field test, control of glyphosate resistant cotton in post-directed treatment; conditions: glyphosate 560 g/ha
Protocol: (§5) In the examples below, the value E which is to be expected if the activity of the individual compounds is just additive was calculated using the method of S. R. Colby (1967) “Calculating synergistic and antagonistic responses of herbicide combinations”, Weeds 15, p. 22 ff.
(§6) where X=effect in percent using active compound A at an application rate a; Y=effect in percent using active compound B at an application rate b; E=expected effect (in %) of A+B at application rates a+b.
(§7) If the experimentally determined value is higher than the value E calculated according to Colby's equation, a synergistic effect is present.
as §1
(§8) As regards the field tests, the test plots were of uniform size (typically between 14 and 37 square meters, each) and the distribution of treated and untreated plots was organized according to a randomised bloc design. […]

[4] = system: glyphosate resistant corn; test: Field test, control of volunteer glyphosate resistant corn by pre-emergence application; conditions: Imazethapyr 70 g/ha, pre-emergence to soybean crop
Protocol: as §5, §6, §7, §1, §8

Structure (SMILES) | Glyphosate susceptible marestail (ERICA) at 29 DAT (% herbicide control) [1] | Glyphosate resistant marestail (ERICA) at 29 DAT (% herbicide control) [2] | Glyphosate resistant cotton at 3 DAT (% control), Found [3] | Control of glyphosate resistant corn at 29 DAT (% control), Found [4]
O=C(O)CNCP(=O)(O)O [Glyphosate, glyphosate] | 98% | 0% | 0% | –
CCc1cnc(C2=NC(C)(C(C)C)C(=O)N2)c(C(=O)O)c1 (stereo not shown) [Imazethapyr, imazethapyr] | – | – | – | 23%

From patent US20080227637A1, “A Method of Controlling Weeds” (BASF Aktiengesellschaft, priority 2005, published 2008)
